{
  "source": "patent US20250215071A1",
  "about": "“Novel Mcl-1 inhibitor and combination of Mcl-1 and a BH3 mimetic, such as a Bcl-2 inhibitor” (NETRIS PHARMA, priority 2022, published 2025)",
  "system": "HeLa UNC5B cells",
  "assay": "UNC5B-induced DNA fragmentation in HeLa UNC5B cells",
  "format": "cell-based, Human",
  "conditions": "doxycycline-induced UNC5B; 18 hours",
  "protocol": "FIG. 2. CRISPR-Cas9 screening identifies genes and molecular pathways involved in UNC5B-induced cell death. Related to FIG. 1. (A): UNC5B induction upon treatment with doxycycline. Stable HCT116 cells, inducible for UNC5B, were treated with the indicated concentrations of doxycycline (Dox). 24 hours later, protein levels of FLAG-UNC5B and GAPDH, used as housekeeping gene, were assessed by western blot. (B): UNC5B induction upon treatment with doxycycline on Hela cells. Stable Hela cells inducible for UNC5B (HeLa UNC5B) were treated with the indicated doses of Dox for 18 hours. Protein levels of His-UNC5B and β-actin, used as housekeeping gene, were measured by western blot. (C,D,E): Induction of UNC5B triggers apoptotic cell death in HCT116 cells. Stable HCTT16 cells inducible for human UNC5B were treated with Dox. To assess cell death, propidium iodide (PI) incorporation was followed in real-time up to 36 hours, using an Incucyte Zoom technology (n=3, ** p<0.01, Kolmogorov Smirnov test) (C). Apoptosis was assessed 18 hours after Dox treatment by DNA fragmentation through flow cytometry ([…] (D) and by caspase-3 activity (E), quantified by fluorometric detection kit (n=3, *p<0.05, ** p<0.01, *** p<0.001, Ordinary two-way ANOVA). Values are given as means±SEM. (F): Caspase inhibition rescues apoptosis triggered by UNC5B. HeLa UNC5B cells were treated with Dox and the pan-caspase inhibitor […] (QVD). 18 hours later, DNA fragmentation was evaluated by flow cytometry (n=3, **** p<0.0001, ordinary two-way ANOVA with Šidák's multiple comparisons test). Values are given as means±SEM. […] The number of guides showing an increase in reads compared to control condition is shown for each gene.\nFIG. 4. […] 18 hours after treatment, apoptosis was measured by DNA fragmentation (A) and caspase-3 activity (B) (n=3-4, **** p<0.0001, ordinary two-way ANOVA with Tukey's multiple comparisons test). […] Protein levels of Mcl-1, Bcl-2 and Bcl-XL, as well as of UNC5B and B-actin, used as housekeeping gene, were evaluated by western blot. […]",
  "data": [
    {"compound": "CC(C)C[C@H](NC(=O)[C@H](Cc1ccccc1)NC(=O)c1cnccn1)B(O)O", "note": "[bortezomib]", "values": [
      {"measurement": "UNC5B-induced apoptosis (DNA fragmentation)", "result": "suppressed"}
    ]}
  ]
}
